Results taken from patent US10730870B2, “Compounds and methods for the enhanced degradation of targeted proteins” (Arvinas, Inc., priority 2015, dated 2020).

Tests used:
BRD4 = BRD4 c-myc ELISA assay in 22RV-1 cells; type: cell-based; settings: 18 hrs
Procedure: 22RV-1 cells were seeded at 30,000 cells/well at a volume of 75 μL/well in RPMI +10% FBS media in 96-well plates and grown overnight at 37 C. Cells were dosed with compounds at 4× concentration diluted in 0.4% DMSO; compounds were serially diluted 1:3 for 8-point dose curve. 25 ul of compound was added to cells for a final concentration starting at 300 nM-0.3 nM in 0.1% DMSO and incubated for 18 hrs. Media was aspirated, cells washed 1× with PBS and aspirated. Cells were lysed in 50 ul RIPA buffer (50 mM Tris pH8, 150 mM NaCl, 1% Tx-100, 0.1% SDS, 0.5% sodium deoxycholate) supplemented with protease and phosphatase inhibitors. Plates were incubated on ice for 15 minutes then centrifuged at 4° C. for 10 min at 4000 rpm. Added 50 ul of cleared lysate from 96-well assay plate into 96-well c-myc ELISA plate (Novex, Life Technologies Catalog # KH02041). […] The rest of the assay was performed following the protocol from the c-myc ELISA kit. Data was analyzed and plotted using GraphPad Prism software.

His-tagged VHL protein = His-tagged VHL protein (Homo sapiens (Human), UniProt P40337); assay: Surface plasmon resonance (SPR) assay; type: binding; settings: average of at least N=2, 1:1 fitting
Procedure: The surface plasmon resonance (SPR) experiments were conducted on a Biacore3000 (GE Healthcare). His-tagged VHL protein was immobilized on a carboxymethylated dextran surface with nitriloacetic acid (NTA), taking advantage of NTA/Ni^2+ chelation. The prepared surface was allowed to equilibrate over three hours in running buffer (Ambion 1×PBS buffer @ pH 7/4, 0.005% Tween, 2% DMSO).
All compounds were prepared in 100% DMSO stock plates with a top concentration of 5 mM in a 3× serial dilution. Compounds were transferred from the stock plate to the assay plate and diluted into running buffer containing no DMSO. All compounds were run as a six-concentration series with a final assay top concentration of 100 uM. Data analysis was performed in Scrubber 2 (BioLogic software, Campbell, Australia). Blanks were subtracted and data was corrected for DMSO using a standard DMSO curve.
Table 2 illustrates VHL inhibition data (i.e., Kd, μM) of examples contained herein in a surface plasmon resonance (SPR) assay.

LNCap and VCaP cells = assay: Apoptosis, cell death and anti-proliferation in LNCaP and VCaP cell systems; type: cell-based; settings: increasing concentrations of AR agonist R1881 and cells containing the AR F876L mutation

His-tagged VHL protein, sequence (P40337 whole entry, looked up): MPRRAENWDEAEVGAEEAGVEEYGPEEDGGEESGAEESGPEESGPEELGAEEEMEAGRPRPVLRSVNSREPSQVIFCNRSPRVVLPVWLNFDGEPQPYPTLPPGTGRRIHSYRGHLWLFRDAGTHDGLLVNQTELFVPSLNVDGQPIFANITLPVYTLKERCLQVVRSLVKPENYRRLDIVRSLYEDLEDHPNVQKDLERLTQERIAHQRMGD
His-tagged VHL protein, sequence (Q15370 whole entry partner, looked up): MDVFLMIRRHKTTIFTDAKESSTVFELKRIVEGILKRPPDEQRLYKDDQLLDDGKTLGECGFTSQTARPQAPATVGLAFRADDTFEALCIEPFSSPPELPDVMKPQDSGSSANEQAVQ
His-tagged VHL protein, sequence (Q15369 whole entry partner, looked up): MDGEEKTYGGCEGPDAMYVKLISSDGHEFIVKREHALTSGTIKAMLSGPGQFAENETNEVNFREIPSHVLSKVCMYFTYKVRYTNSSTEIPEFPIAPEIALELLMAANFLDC

Compound	cMyc Imax (BRD4)	also measured
Cc1ncsc1-c1ccc([C@H](C)NC(=O)[C@@H]2C[C@@H](O)CN2C(=O)[C@H](C(C)C)n2cc(-c3ccnc(O[C@H]4C[C@H](NC(=O)C[C@@H]5N=C(c6ccc(Cl)cc6)c6c(sc(C)c6C)-n6c(C)nnc65)C4)c3)cn2)cc1	++++ (71%≤Imax)	–
Cc1ncsc1-c1ccc([C@H](C)NC(=O)[C@@H]2C[C@@H](O)CN2C(=O)[C@H](C(C)C)n2cc(-c3ccnc(N4CC[C@H](NC(=O)C[C@@H]5N=C(c6ccc(Cl)cc6)c6c(sc(C)c6C)-n6c(C)nnc65)C4)c3)cn2)cc1	++++ (71%≤Imax)	–
Cc1ncsc1-c1ccc([C@H](C)NC(=O)[C@@H]2C[C@@H](O)CN2C(=O)[C@@H](C(C)C)n2cc(-c3ccnc(O[C@H]4C[C@H](NC(=O)C[C@@H]5N=C(c6ccc(Cl)cc6)c6c(sc(C)c6C)-n6c(C)nnc65)C4)c3)cn2)cc1	+++ (51%≤Imax≤70%)	–
Cc1ncsc1-c1ccc([C@H](C)NC(=O)[C@@H]2C[C@@H](O)CN2C(=O)[C@@H](n2cc(-c3ccnc(O[C@H]4C[C@@H](NC(=O)C[C@@H]5N=C(c6ccc(Cl)cc6)c6c(sc(C)c6C)-n6c(C)nnc65)C4)c3)cn2)C(C)(C)C)cc1	++++ (71%≤Imax)	–
Cc1ncsc1-c1ccc(CNC(=O)[C@@H]2C[C@@H](O)CN2C(=O)[C@H](C(C)C)n2cc(-c3cccc(O[C@H](C)CNC(=O)C[C@@H]4N=C(c5ccc(Cl)cc5)c5c(sc(C)c5C)-n5c(C)nnc54)c3)cn2)cc1	++++ (71%≤Imax)	–
Cc1cc([C@H](C(=O)N2C[C@H](O)C[C@H]2C(=O)N[C@@H](C)c2ccc(-c3scnc3C)cc2)C(C)C)on1 [Example 205, (2S,4R)-4-hydroxy-N-[(1S)-1-[4-(4-methyl-1,3-thiazol-5-yl)phenyl]ethyl]-1-[(2R)-3-methyl-2-(3-methyl-1,2-oxazol-5-yl)butanoyl]pyrrolidine-2-carboxamide]	–	Kd (His-tagged VHL protein): 330 nM
CC[C@H](NC(=O)[C@@H]1C[C@@H](O)CN1C(=O)[C@@H](c1cc(C)no1)C(C)C)c1ccc(-c2scnc2C)cc1 [Example 207, (2S,4R)-4-hydroxy-N-[(1S)-1-[4-(4-methyl-1,3-thiazol-5-yl)phenyl]propyl]-1-[(2R)-3-methyl-2-(3-methyl-1,2-oxazol-5-yl)butanoyl]pyrrolidine-2-carboxamide]	–	Kd (His-tagged VHL protein): 240 nM
CNC(=O)c1ccc(N2C(=S)N(c3ccc(C#N)c(C(F)(F)F)c3)C(=O)C2(C)C)cc1F [enzalutamide]	–	anti-proliferative activity (LNCap and VCaP cells): inactive
